Read-outs that look alike come from different tables or passages of the source.
Columns and labels:
[1] = test system: human prostate cancer cell line (PC-3); design: method as in PMID 37259357; conditions: cited from earlier work
MCF-7 = assay: SRB cell viability/antiproliferative assay, MCF-7; conditions: Homo sapiens, MCF7, 48 h
[2] = test system: human leukaemia cell line (CCRF-CEM); design: method as in PMID 37259357; conditions: cited from earlier work
[3] = test system: breast cancer cell line (MCF-7); design: method as in PMID 37259357; conditions: cited from earlier work
[4] = test system: breast cancer cell line (MCF-7); assay: MTT cell viability assay, MCF-7
Description: (§8) After the incubation time, the plate was centrifuged (Universal centrifuge 320R Hettich, Kirchlengern, Germany) at 440× g, 10 min and 4 °C, then 110 µL of supernatant was removed and 10 µL of MTT solution was added and left to incubate for 3.5 h in the oven at 37 °C and 5% CO2. […] The CC50 was calculated using the GraphPad Prism 9.0 program. Each sample was tested in triplicate in three independent experiments (N3) [32, 33].

PC-3 = assay: SRB cell viability/antiproliferative assay, PC-3; conditions: for Emax: SRB 48 h, PC-3, maximum effect at maximum concentration used
[5] = Non-specific microsome protein binding; assay type: in vitro ADME; conditions: rat, pH 7.4; liver microsomes 0.5 mg protein/mL, 37 °C, 60 min; read-out: Percentage of ƒu(mic) (unbound fraction in nonspecific microsomal binding)
Description: Once such bonds are formed, the bound fraction would become incapable of being metabolized.
Liver microsomes were diluted with PBS pH 7.4 to a concentration of 0.5 mg protein/mL and 3 µL at 1 mM of the working test compound and solutions were mixed with 357 µL of liver microsome suspension. After mixing, duplicate 200 µL aliquots were immediately removed, while another microtubule acted as the control sample (T 0 h), and were quenched with 400 µL of cold acetonitrile containing analytical internal standards. The other samples were incubated at 37 °C at 100 rpm, for 60 min with the same subsequent treatment.

[6] = test system: human prostate cancer cell line (PC-3); assay: MTT cell viability assay, PC-3; design: Emax: dose or concentration left out as unconfirmed
Description: as §8

[7] = test system: T lymphoblast cell line (MOLT-4); assay: MTT cell viability assay, MOLT-4; conditions: Homo sapiens
Description: as §8

PAMPA—GIT = assay type: in vitro ADME; conditions: for Papp: PAMPA, read-out: Pe. Exp. GIT; for Classification GIT: by fraction absorbed
Description: (§1) To obtain information on the permeability potential of LASSBio-2208 on cell membranes, this derivative was tested using the parallel artificial membrane permeability assay (PAMPA) that is used as an in vitro model of passive diffusion and transcellular permeation. In this model, the permeability across two artificial membranes is measured: brain lipid from pig extract in dodecane (called PAMPA—BBB) and L-α soy phosphatidylcholine in dodecane (called PAMPA—TGI).
(§2) To perform the permeability assay we used a donor plate where the compounds (tests or controls) are diluted in a buffered medium, characterized by the presence of a synthetic membrane of polyvinylidene fluoride (PVDF) impregnated with a lipid solution, forming a barrier through which the compounds migrate through a diffusion process to the lower plate called the receptor.
(§3) The lipid mixture that impregnates the filter has a different constitution for the permeability tests for the blood–brain barrier (brain lipid from pig extract in dodecane) and gastrointestinal tract (L-α soy phosphatidylcholine in dodecane). In the PAMPA—BBB and PAMPA—GIT assays, the optical density values obtained in the reading at each selected wavelength, for each of the compounds were analysed in comparison with the values of several controls. In the case of the BBB, these values were used to elaborate an equation and determine the permeability coefficient (Pe), using a previously elaborated spreadsheet, and, for the PAMPA—GIT, these values were used to determine the absorbed fraction (Fa%), both using the Excel program. The permeability result for PAMPA—GIT classifies the compounds according to the percentage of absorbed fraction (Fa%), as follows: high intestinal permeability (70–100%), medium permeability (30–69%) or low permeability (0–29%), and the samples were diluted from a stock solution of 10 mM. The PAMPA—BBB model classifies the compounds only as follows: permeable (CNS+) or non-permeable (CNS−) and the assays were made from a stock solution of 1 mg for each compound [25, 40, 41, 42].

MOLT-4 = assay: SRB cell viability/antiproliferative assay, MOLT-4; conditions: Homo sapiens, MOLT-4, 48 h
CCRF-CEM = assay: SRB cell viability/antiproliferative assay, CCRF-CEM; conditions: Homo sapiens, 48 h
[8] = test system: human leukaemia cell line (CCRF-CEM); assay: MTT cell viability assay, CCRF-CEM
Description: as §8

[9] = test system: T lymphoblast cell line (MOLT-4); design: method as in PMID 37259357; conditions: cited from earlier work
PAMPA—BBB = assay type: in vitro ADME; design: key to Classification BBB: permeable (CNS+); non-permeable (CNS−)
Description: as §1, §2, §3

[10] = test system: human peripheral blood mononuclear cells (hPBMC); assay: PBMC viability assay by MTT; assay type: cell-based; conditions: MTT 48 h, human PBMC; maximum cytotoxic response at 100 µM
Description: (§4) The SI indicates how selective a compound is for a tumour cell line compared with a non-tumour cell line.
(§5) Human peripheral blood mononuclear cells (PBMCs) were used to determine the selectivity index (SI) and were obtained from healthy volunteers under a protocol approved by the Ethics Committee CAAE: 38257914.7.0000.5259. Immortalized cells were also obtained from the Rio de Janeiro Cell Bank (BCRJ).
(§6) First, 8 mL of blood from each healthy donor (3 people) was collected in a tube with EDTA in a 1:20 ratio to prevent the blood from clotting. In a 15 mL Falcon tube containing 4 mL of Ficoll-Paque, the 8 mL of blood collected was slowly added, letting it fall down the walls of the tube. It was centrifuged (Universal Centrifuge 320R Hettich) for 40 min at 750× g at 21 °C with acceleration 1 and brake 0. After centrifugation, in order to extract the ring of mononuclear cells, the supernatant above it was first carefully discarded so as not to disturb the ring. The ring was then slowly removed and placed in another 15 mL Falcon tube to which pure RPMI-1640 medium was added in a 1:1 ratio and centrifuged for 10 min at 580× g and 21 °C with acceleration 8 and brake 9 [34, 35].
(§7) The supernatant was discarded, and the pellet was resuspended in 1 mL of RPMI-1640 medium supplemented with 10% SBF and 1% antibiotic. An amount of 20 µL of cells were taken from the mixture and added to 380 µL of trypan blue dye for counting in the Neubauer chamber. Considering that 80% of PBMCs are lymphocytes and the rest are monocytes, the cells were plated with the aim of having 10^5 cell/well.

[11] = PBMC viability assay by MTT; assay type: cell-based, human; conditions: MTT 48 h, non-tumour human PBMC
Description: as §4, §5, §6, §7

Structure (SMILES): CN(C)C1CCN(C(=O)c2ccc(NC(=O)Nc3ccc(-c4nc(N5CCOCC5)nc(N5CCOCC5)n4)cc3)cc2)CC1 [Gedatolisib, gedatolisib]
- CC50 [1]: 0.54 µM
- CC50 (MCF-7): 0.03 µM
- Emax (MCF-7): 95.7%
- CC50 [2]: 0.03 µM
- CC50 [3]: 0.07 µM
- CC50 ([4]; Homo sapiens, MCF7, 24 h): 5.04 µM
- Emax ([4]; Homo sapiens, MCF7, 24 h): 79.9%
- CC50 ([4]; Homo sapiens, MCF7, 48 h): 0.21 µM
- Emax ([4]; Homo sapiens, MCF7, 48 h): 96.8%
- CC50 ([4]; Homo sapiens, MCF7, 72 h): 0.06 µM
- CC50 (PC-3; Homo sapiens, PC-3, 48 h): 6.16 µM
- Emax (PC-3; Homo sapiens, PC-3, 48 h): > 50%
- fraction unbound at 60 min, 8.3 µM [5]: 0.503
- CC50 ([6]; Homo sapiens, 24 h): > 100 µM
- Emax ([6]; Homo sapiens, 24 h): 48%
- CC50 ([6]; Homo sapiens, 48 h): 5.05 µM
- Emax ([6]; Homo sapiens, 48 h): 60.5%
- CC50 ([6]; Homo sapiens, 72 h): 0.86 µM
- Emax ([6]; Homo sapiens, 72 h): 81.1%
- CC50 ([7]; MOLT-4, 24 h): 0.35 µM
- Emax ([7]; MOLT-4, 24 h): 97.2%
- CC50 ([7]; MOLT-4, 48 h): 0.08 µM
- Emax ([7]; MOLT-4, 48 h): 99.3%
- CC50 ([7]; MOLT-4, 72 h): 0.07 µM
- Fraction Absorbed (PAMPA—GIT): 48.4%
- Papp (PAMPA—GIT): 17.4 nm/s
- CC50 (MOLT-4): 3.68 µM
- Emax (MOLT-4): 69.2%
- CC50 (CCRF-CEM): 0.78 µM
- Emax (CCRF-CEM): 66.2%
- CC50 ([8]; 24 h): 0.31 µM
- Emax ([8]; 24 h): 98.6%
- CC50 ([8]; 48 h): 0.085 µM
- Emax ([8]; 48 h): 99.5%
- CC50 ([8]; 72 h): 0.09 µM
- Emax ([8]; 72 h): 100%
- CC50 [9]: 0.02 µM
- Classification BBB (PAMPA—BBB): Insoluble
- Pe. Exp. BBB (PAMPA—BBB): Insoluble
- Pe. Exp. BBB (PAMPA—BBB; listed as gedatolisib): insoluble

Structure (SMILES): CN1CCc2c(c3ccccc3n2Cc2ccc(C(=O)NO)cc2)C1 [Tubastatin A, tubastatin A]
- CC50 (MCF-7): 66 µM
- Emax (MCF-7; SRB 48 h, MCF-7, maximum effect at maximum concentration used): > 70%
- CC50 ([4]; Homo sapiens, MCF7, 24 h): > 100 µM
- Emax ([4]; Homo sapiens, MCF7, 24 h): 40.1%
- CC50 ([4]; Homo sapiens, MCF7, 48 h): > 100 µM
- Emax ([4]; Homo sapiens, MCF7, 48 h): 48.2%
- CC50 ([4]; Homo sapiens, MCF7, 72 h): 83.6 µM
- Emax ([4]; Homo sapiens, MCF7, 72 h): 56.8%
- CC50 ([4]; MTT 24 h, MCF-7): did not show any cytotoxic activity
- CC50 (PC-3; Homo sapiens, PC-3, 48 h): > 100 µM
- Emax (PC-3; Homo sapiens, PC-3, 48 h): < 35%
- Emax (PC-3): 39.3%
- fraction unbound at 60 min, 8.3 µM [5]: 0.131
- Emax [10]: 58.2%
- CC50 at 48 h [11]: 85.7 µM
- CC50 ([6]; Homo sapiens, 24 h): > 100 µM
- Emax ([6]; Homo sapiens, 24 h): 41.8%
- CC50 ([6]; Homo sapiens, 48 h): 65.9 µM
- Emax ([6]; Homo sapiens, 48 h): 67.8%
- CC50 ([6]; Homo sapiens, 72 h): 34.9 µM
- Emax ([6]; Homo sapiens, 72 h): 83.6%
- CC50 ([6]; MTT 24 h, PC-3): did not show any cytotoxic activity
- Emax ([7]; MOLT-4, 24 h): 94.6%
- CC50 ([7]; MOLT-4, 48 h): 7.5 µM
- Emax ([7]; MOLT-4, 48 h): 98.2%
- Emax ([7]; MOLT-4, 72 h): 98.7%
- Fraction Absorbed (PAMPA—GIT): 52.93%
- Papp (PAMPA—GIT): 19.8 nm/s
- Classification GIT (PAMPA—GIT): Medium (medium permeability (30–69%))
- Classification GIT (PAMPA—GIT; listed as tubastatin A): medium
- Fraction Absorbed (PAMPA—GIT; listed as tubastatin A): 52.9%
- CC50 (MOLT-4): 10.5 µM
- Emax (MOLT-4): 54.4%
- CC50 (CCRF-CEM): 9.69 µM
- Emax (CCRF-CEM): 69.5%
- CC50 ([8]; 24 h): 12.5 µM
- Emax ([8]; 24 h): 95.8%
- CC50 ([8]; 48 h): 9.38 µM
- Emax ([8]; 48 h): 99.1%
- CC50 ([8]; 72 h): 7.11 µM
- Emax ([8]; 72 h): 99.3%
- Classification BBB (PAMPA—BBB): CNS+
- Papp (PAMPA—BBB; read-out: Pe. Exp. BBB): 55.4 nm/s
